Data taken from article PMC11189555, “Aryl amino acetamides prevent Plasmodium falciparum ring development via targeting the lipid-transfer protein PfSTART1” (Nature Communications, 2024).
“And” between values parts separate entries of the source, which are not always exact repeats. Equal values may be shown once.

Tested on: 3D7 P. falciparum parasites
Test: Growth inhibition assay (72 h, LDH activity)
Type: cell-based, Plasmodium falciparum
Conditions: for NORMALISED (growth inhibition, LDH absorbance vs DMSO and uRBC): 3D7, 0 mM GlcN; for NORMALISED (growth inhibition, LDH absorbance) / (av-uRBC) / (DMSO-uRBC) x100: 3D7
In short: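 Synchronised ring-stage P. falciparum (0.3-0.6% parasitemia, 2% haematocrit) grown 72 h in serial compound dilutions, sometimes with 0, 0.25 or 2.5 mM glucosamine. Growth read as LDH activity (Malstat/NBT, A650) after freeze-thaw, normalised to DMSO and uninfected RBC. EC50 by nonlinear regression.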

CC(C)(Nc1ccc(Cl)c(S(=O)(=O)N2CCOCC2)c1)C(=O)Nc1ccc(F)c(Cl)c1 [W-991]
NORMALISED (growth inhibition, LDH absorbance vs DMSO and uRBC) (W991 at 0.137174 nM): 9.0099 and 4.6722 | NORMALISED (growth inhibition, LDH absorbance vs DMSO and uRBC) (W991 at 0.411523 nM): 30.495 and 19.7030 | NORMALISED (growth inhibition, LDH absorbance vs DMSO and uRBC) (W991 at 1.23457 nM): 67.3267 and 60.8717 | NORMALISED (growth inhibition, LDH absorbance vs DMSO and uRBC) (W991 at 3.7037 nM): 88.9109 and 93.8187 | NORMALISED (growth inhibition, LDH absorbance vs DMSO and uRBC) (W991 at 11.1111 nM): 90.3465 and 96.7162 | NORMALISED (growth inhibition, LDH absorbance vs DMSO and uRBC) (W991 at 33.3333 nM): 89.8515 and 96.9697 | NORMALISED (growth inhibition, LDH absorbance vs DMSO and uRBC) (W991 at 100 nM): 92.3267 and 97.2232 | NORMALISED (growth inhibition, LDH absorbance) (0.25 mM GlcN, dilution point 1 of 10, starting concentration 100 nM): 97.1868 | NORMALISED (growth inhibition, LDH absorbance) (0.25 mM GlcN, dilution point 2 of 10 from starting concentration 100 nM): 96.6100 | NORMALISED (growth inhibition, LDH absorbance) (0.25 mM GlcN, dilution point 3 of 10 from starting concentration 100 nM): 96.4481 | NORMALISED (growth inhibition, LDH absorbance) (0.25 mM GlcN, dilution point 4 of 10 from starting concentration 100 nM): 92.3801 | NORMALISED (growth inhibition, LDH absorbance) (0.25 mM GlcN, dilution point 5 of 10 from starting concentration 100 nM): 74.4235 and 44.8087 | NORMALISED (growth inhibition, LDH absorbance) (2.5 mM GlcN, dilution point 1 of 10, starting concentration 100 nM): 96.9212 | NORMALISED (growth inhibition, LDH absorbance) (2.5 mM GlcN, dilution point 2 of 10 from starting concentration 100 nM): 96.2021 | NORMALISED (growth inhibition, LDH absorbance) (2.5 mM GlcN, dilution point 3 of 10 from starting concentration 100 nM): 95.7667 | NORMALISED (growth inhibition, LDH absorbance) (2.5 mM GlcN, dilution point 4 of 10 from starting concentration 100 nM): 92.5258 | NORMALISED (growth inhibition, LDH absorbance) (2.5 mM GlcN, dilution point 5 of 10 from starting concentration 100 nM): 58.1932 | NORMALISED (growth inhibition, LDH absorbance) (2.5 mM GlcN, dilution point 6 of 10 from starting concentration 100 nM): 27.2129 | NORMALISED (growth inhibition, LDH absorbance) (2.5 mM GlcN, dilution point 8 of 10 from starting concentration 100 nM): 5.32 and 8.1730 | (av-uRBC) / (DMSO-uRBC) x100 (conc. 0.0762079 nM, Biological replicate 1 (2021-10-25)): 91.3585 | (av-uRBC) / (DMSO-uRBC) x100 (conc. 0.0762079 nM, Biological replicate 2 (2021-11-03)): 90.9909 | (av-uRBC) / (DMSO-uRBC) x100 (conc. 0.0762079 nM, Biological replicate 3 (2021-11-11)): 91.0985 | (av-uRBC) / (DMSO-uRBC) x100 (conc. 0.228624 nM, Biological replicate 1 (2021-10-25)): 79.3619 | (av-uRBC) / (DMSO-uRBC) x100 (conc. 0.228624 nM, Biological replicate 2 (2021-11-03)): 81.2617 | (av-uRBC) / (DMSO-uRBC) x100 (conc. 0.228624 nM, Biological replicate 3 (2021-11-11)): 73.154 | (av-uRBC) / (DMSO-uRBC) x100 (conc. 0.685871 nM, Biological replicate 1 (2021-10-25)): 42.85 | (av-uRBC) / (DMSO-uRBC) x100 (conc. 0.685871 nM, Biological replicate 2 (2021-11-03)): 72.8867 | (av-uRBC) / (DMSO-uRBC) x100 (conc. 0.685871 nM, Biological replicate 3 (2021-11-11)): 42.2112 | (av-uRBC) / (DMSO-uRBC) x100 (conc. 2.05761 nM, Biological replicate 1 (2021-10-25)): 12.3757 | (av-uRBC) / (DMSO-uRBC) x100 (conc. 2.05761 nM, Biological replicate 2 (2021-11-03)): 18.386 | (av-uRBC) / (DMSO-uRBC) x100 (conc. 2.05761 nM, Biological replicate 3 (2021-11-11)): 9.397 | (av-uRBC) / (DMSO-uRBC) x100 (conc. 6.17284 nM, Biological replicate 1 (2021-10-25)): 9.357 | (av-uRBC) / (DMSO-uRBC) x100 (conc. 6.17284 nM, Biological replicate 2 (2021-11-03)): 11.686 | (av-uRBC) / (DMSO-uRBC) x100 (conc. 6.17284 nM, Biological replicate 3 (2021-11-11)): 6.494 | (av-uRBC) / (DMSO-uRBC) x100 (conc. 18.5185 nM, Biological replicate 1 (2021-10-25)): 9.8 | (av-uRBC) / (DMSO-uRBC) x100 (conc. 18.5185 nM, Biological replicate 2 (2021-11-03)): 10.8954 | (av-uRBC) / (DMSO-uRBC) x100 (conc. 18.5185 nM, Biological replicate 3 (2021-11-11)): 6.2108 | (av-uRBC) / (DMSO-uRBC) x100 (conc. 55.5556 nM, Biological replicate 1 (2021-10-25)): 9.035 | (av-uRBC) / (DMSO-uRBC) x100 (conc. 55.5556 nM, Biological replicate 2 (2021-11-03)): 11.005 | (av-uRBC) / (DMSO-uRBC) x100 (conc. 55.5556 nM, Biological replicate 3 (2021-11-11)): 5.108 | (av-uRBC) / (DMSO-uRBC) x100 (conc. 166.667 nM, Biological replicate 1 (2021-10-25)): 9.2782 | (av-uRBC) / (DMSO-uRBC) x100 (conc. 166.667 nM, Biological replicate 2 (2021-11-03)): 9.854 | (av-uRBC) / (DMSO-uRBC) x100 (conc. 166.667 nM, Biological replicate 3 (2021-11-11)): 4.764 | (av-uRBC) / (DMSO-uRBC) x100 (conc. 500 nM, Biological replicate 1 (2021-10-25)): 10.7733 | (av-uRBC) / (DMSO-uRBC) x100 (conc. 500 nM, Biological replicate 2 (2021-11-03)): 10.7389 | (av-uRBC) / (DMSO-uRBC) x100 (conc. 500 nM, Biological replicate 3 (2021-11-11)): 3.985 | improvement in parasite activity on replacing the aryl oxy of compound 3 with an amino group (EC50 based): 20 fold
